In PubChem BioAssay AID2060335 (Molecular Pharmacology Branch, DTP, NCI, 2025):
Where “and” joins values, the source holds several entries; their conditions need not be identical. Equal values may be shown once.

Tested on: DU-145 multicell spheroids with HUVEC/MSC, viability
Assay: Anticancer human tumor DU-145 cell line growth inhibition [IpAb];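 note: spheroids exposed to agents for seven days before measurement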;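 for viability, T/C: percent of DMSO vehicle control viability so 100% = untreated level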
Settings: for viability, T/C: stronger effect = lower value; active = viability on the fitted dose curve at most 10% of control; inactive = the rest
Method in brief: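 Multi-cell spheroids of 60% tumour cells, 25% HUVEC and 15% MSC in ultra-low-attachment U-bottom wells, treated with agents combined with ipatasertib or abemaciclib. Half-log ranges top out near clinical Cmax, or 10 microM when Cmax is unknown.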

[1] = curve of first compound, second compound 0.01 µM
[2] = curve of first compound, second compound 0.0316 µM
[3] = curve of first compound, second compound 0.1 µM
[4] = curve of first compound, second compound 0.316 µM
[5] = curve of first compound, second compound 1 µM
[6] = curve of first compound, second compound 3.16 µM
[7] = curve of first compound, second compound 10 µM
[8] = second compound 0.1 µM, first compound 0.0316 µM
[9] = second compound 0.1 µM, first compound 0.1 µM
[10] = second compound 0.1 µM, first compound 0.316 µM
[11] = second compound 0.1 µM, first compound 1 µM
[12] = second compound 0.316 µM, first compound 0.0316 µM
[13] = second compound 0.316 µM, first compound 0.1 µM
[14] = second compound 0.316 µM, first compound 0.316 µM
[15] = second compound 0.316 µM, first compound 1 µM
[16] = second compound 1 µM, first compound 0.0316 µM
[17] = second compound 1 µM, first compound 0.1 µM
[18] = second compound 1 µM, first compound 0.316 µM
[19] = second compound 1 µM, first compound 1 µM
[20] = second compound 3.16 µM, first compound 0.0316 µM
[21] = second compound 3.16 µM, first compound 0.1 µM
[22] = second compound 3.16 µM, first compound 0.316 µM
[23] = second compound 3.16 µM, first compound 1 µM
[24] = second compound 10 µM, first compound 0.0316 µM
[25] = second compound 10 µM, first compound 0.1 µM
[26] = second compound 10 µM, first compound 0.316 µM
[27] = second compound 10 µM, first compound 1 µM
[28] = second compound 0.1 µM, first compound 3.16 µM
[29] = second compound 0.1 µM, first compound 10 µM
[30] = second compound 0.316 µM, first compound 3.16 µM
[31] = second compound 0.316 µM, first compound 10 µM
[32] = second compound 1 µM, first compound 3.16 µM
[33] = second compound 1 µM, first compound 10 µM

CC(C)(C)c1cnc(CSc2cnc(NC(=O)C3CCNCC3)s2)o1 + CCN1CCN(Cc2ccc(Nc3ncc(F)c(-c4cc(F)c5nc(C)n(C(C)C)c5c4)n3)nc2)CC1
60.4 nM: IC50 [4]
active: viability, T/C (second compound 0.01 µM, first compound 0.949 µM) 6.08% | viability, T/C (second compound 0.01 µM, first compound 3 µM) 5.15% | viability, T/C (second compound 0.0316 µM, first compound 0.3 µM) 8.69% | viability, T/C (second compound 0.0316 µM, first compound 0.949 µM) 5.54% | viability, T/C (second compound 0.0316 µM, first compound 3 µM) 5.3% | viability, T/C (second compound 0.1 µM, first compound 0.3 µM) 7.33% | viability, T/C (second compound 0.1 µM, first compound 0.949 µM) 5.93% | viability, T/C (second compound 0.1 µM, first compound 3 µM) 4.44% | viability, T/C (second compound 0.316 µM, first compound 0.3 µM) 7.83% | viability, T/C (second compound 0.316 µM, first compound 0.949 µM) 5.35% | viability, T/C (second compound 0.316 µM, first compound 3 µM) 4.86% | viability, T/C (second compound 1 µM, first compound 0.3 µM) 6.89% | viability, T/C (second compound 1 µM, first compound 0.949 µM) 4.71% | viability, T/C (second compound 1 µM, first compound 3 µM) 4.63%
82.2 nM: IC50 [2]
inactive: viability, T/C (second compound 0.01 µM, first compound 0.00949 µM) 108% | viability, T/C (second compound 0.01 µM, first compound 0.03 µM) 98.6% | viability, T/C (second compound 0.01 µM, first compound 0.0949 µM) 54% | viability, T/C (second compound 0.01 µM, first compound 0.3 µM) 8.61% | viability, T/C (second compound 0.0316 µM, first compound 0.00949 µM) 94.3% | viability, T/C (second compound 0.0316 µM, first compound 0.03 µM) 88.2% | viability, T/C (second compound 0.0316 µM, first compound 0.0949 µM) 44.7% | viability, T/C (second compound 0.1 µM, first compound 0.00949 µM) 87.6% | viability, T/C (second compound 0.1 µM, first compound 0.03 µM) 77.4% | viability, T/C (second compound 0.1 µM, first compound 0.0949 µM) 38.1% | viability, T/C (second compound 0.316 µM, first compound 0.00949 µM) 77.5% | viability, T/C (second compound 0.316 µM, first compound 0.03 µM) 75.4% | viability, T/C (second compound 0.316 µM, first compound 0.0949 µM) 33.8% | viability, T/C (second compound 1 µM, first compound 0.00949 µM) 67.8% | viability, T/C (second compound 1 µM, first compound 0.03 µM) 55.7% | viability, T/C (second compound 1 µM, first compound 0.0949 µM) 12.7%
34.9 nM: IC50 [5]
66.6 nM: IC50 [3]
104 nM: IC50 [1]

COc1c(OCCCN2CCOCC2)ccc2c3n(c(=NC(=O)c4cnc(N)nc4)nc12)CCN3 + CC(C)NCC(C(=O)N1CCN(c2ncnc3c2C(C)CC3O)CC1)c1ccc(Cl)cc1
inactive: viability, T/C (second compound 0.1 µM, first compound 0.00316 µM) 65.3% | viability, T/C (second compound 0.1 µM, first compound 0.01 µM) 41.2% | viability, T/C [8] 27.6% | viability, T/C [9] 12.7% | viability, T/C [10] 9.75% | viability, T/C (second compound 0.316 µM, first compound 0.00316 µM) 41.5% | viability, T/C (second compound 0.316 µM, first compound 0.01 µM) 28.2% | viability, T/C [12] 18.8% | viability, T/C [13] 11.6% | viability, T/C [14] 9.1% | viability, T/C (second compound 1 µM, first compound 0.00316 µM) 25.4% | viability, T/C (second compound 1 µM, first compound 0.01 µM) 22% | viability, T/C [16] 14.8% | viability, T/C [17] 10% | viability, T/C (second compound 3.16 µM, first compound 0.00316 µM) 18.7% | viability, T/C (second compound 3.16 µM, first compound 0.01 µM) 14.6% | viability, T/C [20] 12.1% | viability, T/C (second compound 10 µM, first compound 0.00316 µM) 14.6% | viability, T/C (second compound 10 µM, first compound 0.01 µM) 12.5% | viability, T/C [24] 10.5%
< 3.16 nM: IC50 [4] | IC50 [5] | IC50 [6] | IC50 [7]
6.79 nM: IC50 [3]
active: viability, T/C [11] 10.5% | viability, T/C [15] 11.2% | viability, T/C [18] 8.83% | viability, T/C [19] 10.2% | viability, T/C [21] 9.46% | viability, T/C [22] 8.26% | viability, T/C [23] 9.07% | viability, T/C [25] 8.52% | viability, T/C [26] 7.9% | viability, T/C [27] 9.09%

Cn1ncc(Cl)c1-c1cc(C(=O)NC(CN)Cc2cccc(F)c2)sc1Cl (stereo unspecified)
inactive: viability, T/C (compound 0.0316 µM) 92.5% and 86.1% | viability, T/C (compound 0.1 µM) 74.3% and 61.8% | viability, T/C (compound 0.316 µM) 41.4% and 33.2% | viability, T/C (compound 1 µM) 27.6% and 23.1% | viability, T/C (compound 3.16 µM) 20.3% and 15.2%
271 nM and 163 nM: IC50 (curve of compound)
active: viability, T/C (compound 10 µM) 1.17% and 1.6%

C=CC(=O)N1CCN(c2nc(=O)n(-c3c(C)ccnc3C(C)C)c3nc(-c4c(O)cccc4F)c(F)cc23)C(C)C1 (stereo unspecified)
8660 nM and 9820 nM: IC50 (curve of compound)
inactive: viability, T/C (compound 0.0316 µM) 104% and 107% | viability, T/C (compound 0.1 µM) 109% and 108% | viability, T/C (compound 0.316 µM) 107% and 109% | viability, T/C (compound 1 µM) 112% and 113% | viability, T/C (compound 3.16 µM) 90.7% and 103% | viability, T/C (compound 10 µM) 44.1% and 48.9%

Cn1nccc1Nc1nccc(-c2ccn(C(CO)c3ccc(Cl)c(F)c3)c(=O)c2)n1 (stereo unspecified)
inactive: viability, T/C (compound 0.0316 µM) 87.3% and 90% | viability, T/C (compound 0.1 µM) 72.5% and 77.1% | viability, T/C (compound 0.316 µM) 79% and 73.5% | viability, T/C (compound 1 µM) 93.7% and 87.4% | viability, T/C (compound 3.16 µM) 112% and 116% | viability, T/C (compound 10 µM) 65% and 81.9%
> 10000 nM: IC50 (curve of compound)

C=CC(=O)N1CCN(c2nc(=O)n(-c3c(C)ccnc3C(C)C)c3nc(-c4c(O)cccc4F)c(F)cc23)C(C)C1 (stereo unspecified) + CC(C)NCC(C(=O)N1CCN(c2ncnc3c2C(C)CC3O)CC1)c1ccc(Cl)cc1
8760 nM: IC50 [3]
< 31.6 nM: IC50 [5] | IC50 [6] | IC50 [7]
4170 nM: IC50 [4]
inactive: viability, T/C [8] 81.3% | viability, T/C [9] 87.7% | viability, T/C [10] 86.1% | viability, T/C [11] 92% | viability, T/C [28] 82.9% | viability, T/C [29] 45.5% | viability, T/C [12] 53.9% | viability, T/C [13] 55% | viability, T/C [14] 59.1% | viability, T/C [15] 59.2% | viability, T/C [30] 52.9% | viability, T/C [31] 37.8% | viability, T/C [16] 34% | viability, T/C [17] 35.5% | viability, T/C [18] 37.6% | viability, T/C [19] 37.4% | viability, T/C [32] 34.5% | viability, T/C [33] 28.3% | viability, T/C [20] 22.4% | viability, T/C [21] 21.9% | viability, T/C [22] 27.5% | viability, T/C [23] 24.4% | viability, T/C (second compound 3.16 µM, first compound 3.16 µM) 24.5% | viability, T/C (second compound 3.16 µM, first compound 10 µM) 20.7% | viability, T/C [24] 19.5% | viability, T/C [25] 19.3% | viability, T/C [26] 18.5% | viability, T/C [27] 21.6% | viability, T/C (second compound 10 µM, first compound 3.16 µM) 19.9% | viability, T/C (second compound 10 µM, first compound 10 µM) 17.1%

Cn1nccc1Nc1nccc(-c2ccn(C(CO)c3ccc(Cl)c(F)c3)c(=O)c2)n1 (stereo unspecified) + CCN1CCN(Cc2ccc(Nc3ncc(F)c(-c4cc(F)c5nc(C)n(C(C)C)c5c4)n3)nc2)CC1
> 10000 nM: IC50 [1] | IC50 [3] | IC50 [4] | IC50 [5]
inactive: viability, T/C (second compound 0.01 µM, first compound 0.0316 µM) 86.9% | viability, T/C (second compound 0.01 µM, first compound 0.1 µM) 68.4% | viability, T/C (second compound 0.01 µM, first compound 0.316 µM) 71% | viability, T/C (second compound 0.01 µM, first compound 1 µM) 85.6% | viability, T/C (second compound 0.01 µM, first compound 3.16 µM) 103% | viability, T/C (second compound 0.01 µM, first compound 10 µM) 82.1% | viability, T/C (second compound 0.0316 µM, first compound 0.0316 µM) 85.4% | viability, T/C (second compound 0.0316 µM, first compound 0.1 µM) 64.7% | viability, T/C (second compound 0.0316 µM, first compound 0.316 µM) 69.8% | viability, T/C (second compound 0.0316 µM, first compound 1 µM) 82.5% | viability, T/C (second compound 0.0316 µM, first compound 3.16 µM) 105% | viability, T/C (second compound 0.0316 µM, first compound 10 µM) 37.7% | viability, T/C [8] 65.2% | viability, T/C [9] 60.4% | viability, T/C [10] 63.5% | viability, T/C [11] 75.1% | viability, T/C [28] 92.6% | viability, T/C [29] 53.6% | viability, T/C [12] 67.1% | viability, T/C [13] 60.7% | viability, T/C [14] 61.9% | viability, T/C [15] 77% | viability, T/C [30] 79.1% | viability, T/C [31] 54.8% | viability, T/C [16] 66.4% | viability, T/C [17] 68.2% | viability, T/C [18] 61.5% | viability, T/C [19] 73.5% | viability, T/C [32] 90.2% | viability, T/C [33] 64.3%
7220 nM: IC50 [2]
